Assay results from ChEMBL document CHEMBL3272022, “Analogs of luteinizing hormone-releasing hormone with increased biological activity produced by D-amino acid substitutions in position 6” (1976).

What was measured:
[1] = test system: Rattus norvegicus; assay: Induction of luteinizing hormone release in immature male rat at 100 ng, sc measured after 15 mins to 6 hrs post dose by RIA relative to LH-RH
[2] = test system: Rattus norvegicus; assay: Induction of FSH release in immature male rat at 100 ng, sc measured after 15 mins to 6 hrs post dose by RIA relative to LH-RH
[3] = test system: Rattus norvegicus; assay: Induction of luteinizing hormone release in ovariectomized estrogen/progesterone-treated rat at 100 ng, sc measured after 30 mins post dose by RIA relative to LH-RH; type: functional
[4] = test system: Rattus norvegicus; assay: Induction of luteinizing hormone release in ovariectomized estrogen/progesterone-treated rat at 50 ng, sc measured at 60 mins post dose by RIA (reference value: 6.0+/- 0.4 ng/ml); type: functional
[5] = test system: Rattus norvegicus; assay: Induction of luteinizing hormone release in ovariectomized estrogen/progesterone-treated rat at 10 ng, sc measured at 30 mins post dose by RIA (reference value: 5.3 +/- 1.5 ng/ml); type: functional
[6] = test system: Rattus norvegicus; assay: Induction of luteinizing hormone release in ovariectomized estrogen/progesterone-treated rat at 50 ng, sc measured at 30 mins post dose by RIA (reference value: 5.3 +/- 1.5 ng/ml); type: functional
[7] = test system: Rattus norvegicus; assay: Induction of luteinizing hormone release in ovariectomized estrogen/progesterone-treated rat at 10 ng, sc measured at 60 mins post dose by RIA (reference value: 6.0+/- 0.4 ng/ml); type: functional
[8] = test system: Rattus norvegicus; assay: Induction of luteinizing hormone release in ovariectomized estrogen/progesterone-treated rat at 1 ng, sc measured at 30 mins post dose by RIA (reference value: 5.3 +/- 1.5 ng/ml); type: functional
[9] = test system: Rattus norvegicus; assay: Induction of luteinizing hormone release in ovariectomized estrogen/progesterone-treated rat at 5 ng, sc measured at 60 mins post dose by RIA (reference value: 6.0+/- 0.4 ng/ml); type: functional
[10] = test system: Rattus norvegicus; assay: Induction of luteinizing hormone release in ovariectomized estrogen/progesterone-treated rat at 1 ng, sc measured at 60 mins post dose by RIA (reference value: 6.0+/- 0.4 ng/ml); type: functional
[11] = test system: Rattus norvegicus; assay: Induction of luteinizing hormone release in ovariectomized estrogen/progesterone-treated rat at 5 ng, sc measured at 30 mins post dose by RIA (reference value: 5.3 +/- 1.5 ng/ml); type: functional

SMILES | Ratio [1] | Ratio [2] | further results
CC(C)C[C@H](NC(=O)[C@@H](Cc1ccccc1)NC(=O)[C@H](Cc1ccc(O)cc1)NC(=O)[C@H](CO)NC(=O)[C@H](Cc1c[nH]c2ccccc12)NC(=O)[C@H](Cc1cnc[nH]1)NC(=O)[C@@H]1CCC(=O)N1)C(=O)N[C@@H](CCCNC(=N)N)C(=O)N1CCC[C@H]1C(=O)NCC(N)=O | 10 | 20 | 
CC(C)C[C@H](NC(=O)[C@@H](C)NC(=O)[C@H](Cc1ccc(O)cc1)NC(=O)[C@H](CO)NC(=O)[C@H](Cc1c[nH]c2ccccc12)NC(=O)[C@H](Cc1cnc[nH]1)NC(=O)[C@@H]1CCC(=O)N1)C(=O)N[C@@H](CCCNC(=N)N)C(=O)N1CCC[C@H]1C(=O)NCC(N)=O | 7 | 13 | 
CC(C)C[C@H](NC(=O)[C@@H](CCC(=O)O)NC(=O)[C@H](Cc1ccc(O)cc1)NC(=O)[C@H](CO)NC(=O)[C@H](Cc1c[nH]c2ccccc12)NC(=O)[C@H](Cc1cnc[nH]1)NC(=O)[C@@H]1CCC(=O)N1)C(=O)N[C@@H](CCCNC(=N)N)C(=O)N1CCC[C@H]1C(=O)NCC(N)=O | 1.8 | 1.5 | 
CC(C)C[C@H](NC(=O)[C@@H](C)N(C)C(=O)[C@H](Cc1ccc(O)cc1)NC(=O)[C@H](CO)NC(=O)[C@H](Cc1c[nH]c2ccccc12)NC(=O)[C@H](Cc1cnc[nH]1)NC(=O)[C@@H]1CCC(=O)N1)C(=O)N[C@@H](CCCNC(=N)N)C(=O)N1CCC[C@H]1C(=O)NCC(N)=O |  |  | Ratio [3]: 0.1; Activity [4]: 18.6 ng/mL; Activity [5]: 22.9 ng/mL; Activity [6]: 47.8 ng/mL; Activity [7]: 8.9 ng/mL
CCNC(=O)[C@@H]1CCCN1C(=O)[C@H](CCCNC(=N)N)NC(=O)[C@H](CC(C)C)NC(=O)[C@@H](Cc1ccccc1)NC(=O)[C@H](Cc1ccc(O)cc1)NC(=O)[C@H](CO)NC(=O)[C@H](Cc1c[nH]c2ccccc12)NC(=O)[C@H](Cc1cnc[nH]1)NC(=O)[C@@H]1CCC(=O)N1 | 8 | 7 | 
CCNC(=O)[C@@H]1CCCN1C(=O)[C@H](CCCNC(=N)N)NC(=O)[C@H](CC(C)C)NC(=O)[C@@H](Cc1c[nH]c2ccccc12)NC(=O)[C@H](Cc1ccc(O)cc1)NC(=O)[C@H](CO)NC(=O)[C@H](Cc1c[nH]c2ccccc12)NC(=O)[C@H](Cc1c[nH]cn1)NC(=O)[C@@H]1CCC(=O)N1 [DESLORELIN] | 7 | 6 | 
CC(C)C[C@H](NC(=O)CNC(=O)[C@H](Cc1ccc(O)cc1)NC(=O)[C@H](CO)NC(=O)[C@H](Cc1c[nH]c2ccccc12)NC(=O)[C@H](Cc1cnc[nH]1)NC(=O)[C@@H]1CCC(=O)N1)C(=O)N[C@@H](CCCNC(=N)N)C(=O)N1CCC[C@H]1C(=O)NCC(N)=O [GONADORELIN] |  |  | Activity [8]: 24.5 ng/mL; Activity [9]: 15.4 ng/mL; Activity [10]: 9.6 ng/mL; Activity [11]: 47 ng/mL
CCNC(=O)[C@@H]1CCCN1C(=O)[C@H](CCCNC(=N)N)NC(=O)[C@H](CC(C)C)NC(=O)[C@@H](CC(C)C)NC(=O)[C@H](Cc1ccc(O)cc1)NC(=O)[C@H](CO)NC(=O)[C@H](Cc1c[nH]c2ccccc12)NC(=O)[C@H](Cc1c[nH]cn1)NC(=O)[C@@H]1CCC(=O)N1 [LEUPROLIDE] | 15 | 11 | 
CC(C)C[C@H](NC(=O)[C@@H](Cc1c[nH]c2ccccc12)NC(=O)[C@H](Cc1ccc(O)cc1)NC(=O)[C@H](CO)NC(=O)[C@H](Cc1c[nH]c2ccccc12)NC(=O)[C@H](Cc1c[nH]cn1)NC(=O)[C@@H]1CCC(=O)N1)C(=O)N[C@@H](CCCNC(=N)N)C(=O)N1CCC[C@H]1C(=O)NCC(N)=O [TRIPTORELIN] | 13 | 21 | 
